Reference: US6500842B1, “8-hydroxy-7-substituted quinolines as anti-viral agents” (Pharmacia & Upjohn Company, priority 1996, dated 2002)
“And” between values parts separate entries of the source, which are not always exact repeats. Equal entries are not always repeated. Where two headings read alike, the source gives them in different places.

Key:
[1] = target: T1, CMV polymerase (Human cytomegalovirus, UniProt P08546); test: modified version of the HCMV polymerase assay (100% DMSO dilution, DTT, different enzyme lot); assay type: biochemical
T1 construct: made in house; host or cells: recombinant baculovirus-infected SF-9 cells
Description: (§1) The HCMV polymerase assay is performed using a scintillation proximity assay (SPA) as described in several references, such as N. D. Cook, et al., Pharmaceutical Manufacturing International, pages 49-53 (1992); K. Takeuchi, Laboratory Practice, September issue (1992); U.S. Pat. No. 4,568,649 (1986); which are incorporated by reference herein. Reactions are performed in 96-well plates. The assay is conducted in 100 μl volume with 5.4 mM HEPES (pH 7.5), 11.7 mM KCl, 4.5 mM MgCl2, 0.36 mg/ml BSA, and 90 nM ^3H-dTTP. Assays are run with and without CHAPS, (3-[(3-Cholamidopropyl)-dimethylammonio]-1-propane-sulfonate) at a final concentration of 2 mM. HCMV is diluted in enzyme dilution buffer containing 50% glycerol, 250 mM NaCl, 10 mM HEPES (pH 7.5), 100 pg/ml BSA, and 0.01% sodium azide. The HCMV polymerase, which is expressed in recombinant baculovirus-infected SF-9 cells and purified according to literature procedures, is added at 10% (or 10 μl) of the final reaction volume, i.e., 100 μl. Compounds are diluted in 50% DMSO and 10 μl are added to each well. Control wells contain an equivalent concentration of DMSO. Unless noted otherwise, reactions are initiated via the addition of 6 nM biotinylated poly(dA)-oligo(dT) template/primer to reaction mixtures containing the enzyme, substrate, and compounds of interest. Plates are incubated in a 25° C. of 37° C. H2O bath and terminated via the addition of 40 μl/reaction of 0.5 M EDTA (pH 8) per well. Reactions are terminated within the time-frame during which substrate incorporation is linear and varied depending upon the enzyme and conditions used, i.e., 30 min. for HCMV polymerase. Ten μl of streptavidin-SPA beads (20 mg/ml in PBS/10% glycerol) are added following termination of the reaction. Plates are incubated 10 min. at 37° C., then equilibrated to room temperature, and counted on a Packard Topcount. Linear regressions are performed and IC50's are calculated using computer software. Results of the testing of compounds of the present invention in this assay are shown in Tables 1, 2, 5, 9, 10, 11, 13 (except for the last compound which was tested under modified conditions) and 14 below.
A modified version of the above HCMV polymerase assay is performed as described above, but with the following changes: Compounds are diluted in 100% DMSO until final dilution into assay buffer. In the previous assay, compounds are diluted in 50% DMSO. 4.5 mM dithiotherotol (DTT) is added to the polymerase buffer.

[2] = target: T2, HCMV polymerase (Human cytomegalovirus, UniProt P08546); test: HCMV polymerase assay (scintillation proximity assay); assay type: biochemical
T2 construct: made in house; host or cells: recombinant baculovirus-infected SF-9 cells
Description: as §1

[3] = Table 9, read-out: CMV pol Assay- IC50
[4] = Table 10, CMV pol Assay, read-out: IC50
[5] = Table 11, read-out: CMV pol Assay IC50

T2 sequence (P08546 whole entry): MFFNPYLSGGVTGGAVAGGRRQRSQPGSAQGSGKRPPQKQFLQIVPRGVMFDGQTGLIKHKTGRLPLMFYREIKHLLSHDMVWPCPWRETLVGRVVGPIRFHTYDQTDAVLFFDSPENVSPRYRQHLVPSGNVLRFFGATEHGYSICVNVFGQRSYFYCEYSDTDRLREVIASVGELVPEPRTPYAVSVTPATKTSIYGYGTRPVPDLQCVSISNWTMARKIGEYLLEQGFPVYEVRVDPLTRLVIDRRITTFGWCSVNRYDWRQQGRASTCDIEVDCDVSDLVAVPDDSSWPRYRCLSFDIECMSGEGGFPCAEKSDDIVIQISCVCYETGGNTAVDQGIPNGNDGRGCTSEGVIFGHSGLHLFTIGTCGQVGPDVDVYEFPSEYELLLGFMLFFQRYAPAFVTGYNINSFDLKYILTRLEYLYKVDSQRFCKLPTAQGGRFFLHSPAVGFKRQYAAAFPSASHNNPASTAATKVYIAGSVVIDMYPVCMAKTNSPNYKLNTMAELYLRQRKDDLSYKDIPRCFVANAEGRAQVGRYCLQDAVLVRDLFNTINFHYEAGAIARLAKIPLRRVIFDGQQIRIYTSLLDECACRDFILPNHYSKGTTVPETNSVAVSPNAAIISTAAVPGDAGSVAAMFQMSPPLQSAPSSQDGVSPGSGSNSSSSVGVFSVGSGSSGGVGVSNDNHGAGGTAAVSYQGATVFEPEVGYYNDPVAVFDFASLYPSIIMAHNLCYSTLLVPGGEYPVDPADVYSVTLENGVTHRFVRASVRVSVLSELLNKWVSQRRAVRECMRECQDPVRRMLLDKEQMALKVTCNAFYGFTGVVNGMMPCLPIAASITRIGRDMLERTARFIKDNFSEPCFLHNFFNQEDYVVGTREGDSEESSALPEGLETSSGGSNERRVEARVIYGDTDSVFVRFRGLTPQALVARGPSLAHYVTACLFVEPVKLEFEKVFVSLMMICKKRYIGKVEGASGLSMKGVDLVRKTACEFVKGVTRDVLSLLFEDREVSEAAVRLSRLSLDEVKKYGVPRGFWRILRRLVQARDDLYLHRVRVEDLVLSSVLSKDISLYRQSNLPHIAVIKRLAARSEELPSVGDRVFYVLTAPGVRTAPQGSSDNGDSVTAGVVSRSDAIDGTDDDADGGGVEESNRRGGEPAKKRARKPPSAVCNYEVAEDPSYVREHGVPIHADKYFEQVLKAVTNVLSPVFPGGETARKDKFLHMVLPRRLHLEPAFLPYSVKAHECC
T1 sequence (P08546 whole entry): as above

O=C(NCCCc1ccccc1)c1ccc2ccc(/C=C/c3ccccc3)nc2c1O
IC50 ([1]; Table 13, last compound, tested under modified conditions, read-out: IC50): 5.1 µM

O=S(=O)(NCc1ccccc1)c1cc(F)c2cccnc2c1O [Example 67, 5-Flouro-8-hydroxy-N-(phenylmethyl)-7-quinolinesulfonamide]
% Inhibition ([1]; Concentration 3.13 μM, Table 6): 13% | % Inhibition ([1]; Concentration 6.25 μM, Table 6): 23% | % Inhibition ([1]; Concentration 12.5 μM, Table 6): 25% | % Inhibition ([1]; Concentration 25 μM, Table 6): 41% | % Inhibition ([1]; Concentration 50 μM, Table 6): 76% | % Inhibition ([1]; Concentration 100 μM, Table 6): 86% | % Inhibition ([1]; Concentration 200 μM, Table 6): 94% | IC50 ([1]; Table 6, read-out: IC50): 23.6 µM

COc1ccc(CCc2ccc3ccc(C(=O)NCC(O)c4ccccc4)c(O)c3n2)cc1 (stereo not drawn) [drawing 129]
IC50 ([1]; Polymerase CMV, Table 7, read-out: Antiviral Selective Polymerase IC50 Values - IC50): 13.3 µM

C[C@H](NC(=O)c1ccc2cccnc2c1O)c1cccc2ccccc12
IC50 [2, 3]: 3 µM

CCCCCCNC(=O)c1ccc2cccnc2c1O
IC50 ([2]; Table 14, read-out: IC50): 27 µM

COC(=O)C(Cc1ccc(O)cc1)NC(=O)c1ccc2cccnc2c1O (stereo not drawn)
IC50 [2, 3]: 12.1 µM

O=C(NC1CCCCCCC1)c1ccc2cccnc2c1O
IC50 [2, 3]: 7.6 µM

O=C(NCc1ccc(Cl)cc1)c1ccc2ccc(/C=C/c3ccco3)nc2c1O [Example 57, N-[(4-Chlorophenyl)methyl]-2-[2-(2-furyl)ethenyl]-8-hydroxy-7-quinolinecarboxamide]
IC50 ([2]; Table 5, pol type CMV, read-out: IC50): 8 µM

Cc1ccc(Cl)c(NC(=O)c2ccc3cccnc3c2O)c1
IC50 [2, 4]: 7.5 µM

O=C(Nc1nnc(NC(C(=O)O)c2cccc3c2OCO3)s1)c1ccc2cccnc2c1O (stereo not drawn)
IC50 [2, 5]: 18.9 µM

O=C(Nc1ccccc1Br)c1ccc2cccnc2c1O
IC50 [2, 4]: 16 µM

O=C(NC1=NC(=O)C(c2ccc(Cl)cc2)S1)c1cc(Br)c2cccnc2c1O (stereo not drawn) [Example 6, 5-Bromo-N-[5-(4-chlorophenyl)-4,5-dihydro-4-oxo-2-thiazolyl]-8-hydroxy-7-quinolinecarboxamide]
IC50 ([2]; pol type CMV, Table 1, read-out: CMV pol Assay IC50): 4.1 µM

CC(C)(C)OC(=O)[C@@H]1CCCN1c1nnc(NC(=O)c2ccc3cccnc3c2O)s1
IC50 [2, 5]: 13.9 µM

Cc1cccc(NC(=O)c2ccc3cccnc3c2O)c1C
IC50 [2, 4]: 8.6 µM

O=C(N[C@H](CO)Cc1ccccc1)c1ccc2cccnc2c1O
inhibition at 25 µM ([2]; Table 14): 93%

O=C(N[C@@H]1CC2CCC1C2)c1ccc2cccnc2c1O (stereo partly drawn)
IC50 [2, 3]: 19.2 µM

COc1cc(Cl)c(C)cc1NC(=O)c1ccc2cccnc2c1O
IC50 [2, 4]: 7.9 µM

CC(C)C[C@H](Nc1nnc(NC(=O)c2ccc3cccnc3c2O)s1)C(=O)OC(C)(C)C
IC50 [2, 5]: 11.4 µM

O=C(NC1(CO)CCCC1)c1ccc2cccnc2c1O
IC50 [2, 3]: 6.6 µM

O=C(NCCc1cccc(Cl)c1)c1ccc2cccnc2c1O
IC50 [2, 3]: 6.9 µM

O=C(N[C@H]1CC[C@H](O)CC1)c1ccc2cccnc2c1O
inhibition at 25 µM ([2]; Table 14): 21%

CC(NC(=O)c1ccc2cccnc2c1O)c1ccccc1 (stereo not drawn)
IC50 [2, 3]: 22.2 µM

Cc1cc(C(F)(F)F)nc2c(O)c(C(=O)NCc3ccc(Cl)cc3)ccc12
inhibition at 100 µM ([2]; Table 13, 100 μM): 35%

O=C(Nc1cccc2ccccc12)c1ccc2cccnc2c1O
IC50 [2, 4]: 4.9 µM

O=C(NCCSc1ccccc1)c1ccc2ccc(C(F)(F)F)nc2c1O
IC50 ([2]; Table 13, read-out: IC50): 41.6 µM

O=C(N[C@@H](CO)C(=O)OCc1ccccc1)c1ccc2cccnc2c1O
IC50 [2, 3]: 11.3 µM and 9.2 µM

Cc1cc(O)c2ccc(C(=O)NCc3ccc(Cl)cc3)c(O)c2n1
IC50 ([2]; Table 13, read-out: IC50): 102 µM

O=C(NCc1cc(Cl)ccc1Cl)c1ccc2cccnc2c1O
IC50 [2, 3]: 17 µM

O=C(Nc1ccc2c(C(F)(F)F)cc(=O)oc2c1)c1ccc2cccnc2c1O
IC50 ([2]; IC50 uM, Table 10, CMV pol Assay): 9.5 µM

CCCCC(CC)CNC(=O)c1ccc2cccnc2c1O (stereo not drawn)
IC50 [2, 3]: 3.2 µM

O=C(Nc1cc(Cl)ccc1O)c1ccc2cccnc2c1O
IC50 [2, 4]: 13.8 µM

CC(C)C[C@H](NC(=O)c1ccc2cccnc2c1O)C(=O)OC(C)(C)C
IC50 ([2]; Table 14, read-out: IC50): 51 µM

O=C(c1ccc2cccnc2c1O)N1CCN(c2ccc(Cl)c(Cl)c2)CC1
IC50 ([2]; Table 14, read-out: IC50): 14 µM

O=C(Nc1cc(C(F)(F)F)ccc1Cl)c1ccc2cccnc2c1O [drawing 221]
IC50 [2, 4]: 14 µM

O=C(NCc1ccc(F)c(Cl)c1)c1ccc2cccnc2c1O
IC50 [2, 3]: 17.5 µM

O=C(Nc1cc(Cl)c(O)c(Cl)c1)c1ccc2cccnc2c1O
IC50 [2, 4]: 30.5 µM

Cc1cccc(NC(=O)c2ccc3cccnc3c2O)c1 [drawing 284]
IC50 [2, 4]: 7 µM

C[C@@H](NC(=O)c1ccc2cccnc2c1O)c1cccc2ccccc12
IC50 [2, 3]: < 3.1 µM and 2.4 µM and 10.8 µM

COc1ccc(NC(=O)c2ccc3cccnc3c2O)c([N+](=O)[O-])c1
IC50 [2, 4]: 22.4 µM

O=C(NCc1ccc(F)c(F)c1)c1ccc2cccnc2c1O
IC50 ([2]; Table 14, read-out: IC50): 42 µM

O=C(Nc1nnc(Br)s1)c1ccc2cccnc2c1O [drawing 304]
IC50 [2, 5]: 93.2 µM
